This passage reports IC50, AC50 and EC50 results from ChEMBL document CHEMBL1201862, “PubChem BioAssay data set” (2004).

Calls of active or inactive are those of the source.

What is called AC50 is the midpoint of the concentration-response curve, whichever way the signal moves. The EC50 is the concentration that produces a half-maximal response.

Test [1] concerns the target Tyrosine-protein phosphatase non-receptor type 11 (Homo sapiens, UniProt Q06124). Put plainly: SHP2 phosphatase inhibition, dose response, selectivity assay for STEP inhibitor project, biochemical (AID 602367). It is filed as functional. The settings on record: read-out: IC50_Mean.
Test [2] concerns the target 26S proteasome non-ATPase regulatory subunit 14 (Homo sapiens, UniProt O00487). Put plainly: inhibition of proteasome subunit RPN11 – biochemical, fluorescence polarization, uHTS hits, confirmation (AID 602368). It is filed as functional. A general note: Fluorescence polarisation rises when a labelled molecule tumbles more slowly, as on binding a larger partner.
For test [3], the target named is Tyrosine-protein phosphatase non-receptor type 5 (Homo sapiens, UniProt P54829). Put plainly: STEP phosphatase inhibitors, confirmation, biochemical, fluorescence intensity, uHTS hits (AID 602372). The format is functional. Conditions: read-out: IC50_Mean.
Test [4] deals with 72 kDa type IV collagenase (Homo sapiens, UniProt P08253). As to the kind of experiment: Dose Response validation of uHTS RPN11 inhibitor hits using a MMP-2 Fluorescence assay. The format is functional.
The target in test [5] is Dual specificity protein phosphatase 3 (Homo sapiens, UniProt P51452). Put plainly: VHR phosphatase inhibition, dose response, selectivity assay for STEP inhibitor project, biochemical (AID 602374). It is filed as functional. The settings on record: read-out: IC50_Mean.
Test [6] concerns the target Prothrombin (Bos taurus, UniProt P00735). Put plainly: thrombin inhibition, dose response, biochemical, fluorescence polarization, uHTS hits (AID 602369). It is filed as functional.
Test [7] addresses T1, Tyrosine-protein phosphatase non-receptor type 22 (Homo sapiens, UniProt Q9Y2R2).
T1 sequence (Q9Y2R2 whole entry): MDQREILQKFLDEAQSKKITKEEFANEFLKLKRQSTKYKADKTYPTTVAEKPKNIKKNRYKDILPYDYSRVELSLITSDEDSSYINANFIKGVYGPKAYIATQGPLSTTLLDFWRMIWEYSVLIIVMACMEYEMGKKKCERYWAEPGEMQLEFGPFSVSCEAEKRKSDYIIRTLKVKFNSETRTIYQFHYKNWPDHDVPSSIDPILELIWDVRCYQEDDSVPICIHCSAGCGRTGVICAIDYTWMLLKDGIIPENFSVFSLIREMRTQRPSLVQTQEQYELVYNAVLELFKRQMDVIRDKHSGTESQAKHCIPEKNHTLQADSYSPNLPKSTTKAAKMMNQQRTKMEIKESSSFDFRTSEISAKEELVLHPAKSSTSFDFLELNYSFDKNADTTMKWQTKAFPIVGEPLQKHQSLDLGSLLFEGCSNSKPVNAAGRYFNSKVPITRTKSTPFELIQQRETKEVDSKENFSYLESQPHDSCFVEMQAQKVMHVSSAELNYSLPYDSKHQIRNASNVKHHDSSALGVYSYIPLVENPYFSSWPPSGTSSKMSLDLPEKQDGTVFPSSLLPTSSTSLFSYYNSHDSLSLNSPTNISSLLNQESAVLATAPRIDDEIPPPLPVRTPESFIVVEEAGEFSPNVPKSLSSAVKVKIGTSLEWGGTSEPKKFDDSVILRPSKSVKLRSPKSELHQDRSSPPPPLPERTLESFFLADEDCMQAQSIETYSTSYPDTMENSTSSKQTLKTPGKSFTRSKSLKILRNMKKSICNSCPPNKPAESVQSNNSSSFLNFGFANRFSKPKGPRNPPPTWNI
As to the kind of experiment: PTPN22 phosphatase inhibition, dose response, selectivity assay for STEP inhibitor project, biochemical (AID 624241). It is filed as functional.

Test [8] can be described thus: HEK293T cytotoxicity, dose response, cytotoxicity control for miR-122 modulator project, cell-based, inhibitor set, cherry-pick, set 2 (AID 720697). It is filed as functional.
The nature of test [9]: HEK293T cytotoxicity, dose response, cytotoxicity control for miR-122 modulator project, cell-based, activator set, cherry-pick (AID 720690).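 Note: HEK293T human cells scored for general mammalian cytotoxicity.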 The format is functional.
The target in test [10] is T2, Methionyl-tRNA synthetase, putative (Trypanosoma brucei brucei, UniProt Q38C91). It is filed as functional, Trypanosoma brucei brucei strain 927/4 GUTat10.1.
Test [11] is described as follows: Counterscreen for inhibitors of Trypanosoma brucei methionyl tRNA synthetase (MetRS): Luminescence-based cell-based high throughput dose response assay to identify compounds that are cytotoxic to Jurkat human T lymphocyte cells. It is filed as functional.
Test [12] concerns the target T2, Methionyl-tRNA synthetase, putative. The format is functional, Trypanosoma brucei brucei strain 927/4 GUTat10.1. This is another data set of the same source.
The target of test [13] is T3, Fatty acid synthase (Homo sapiens, UniProt P49327). As to the kind of experiment: FAS thioesterase domain inhibitors, dose response, biochemical, endpoint fluorescence intensity, uHTS hits (AID 624327).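 Note: fluorescence from hydrolysis of an O-methyl fluorescein acyl ester substrate by the enzyme.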 It is filed as functional.
In test [14] the target is T3, Fatty acid synthase. As to the kind of experiment: FAS thioesterase domain inhibitors, dose response, biochemical, kinetic fluorescence intensity (AID 624326).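 Note: rate of fluorescence rise from hydrolysis of a fluorogenic O-methyl fluorescein ester substrate.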 The format is functional.
A short description of test [15]: NIH/3T3 fibroblast cytotoxicity, dose response, cytotoxicity control for T. cruzi growth inhibitor project, cell-based, cherry-pick samples, set 2 (AID 651817). The format is functional. Conditions: NIH3T3.
Test [16] addresses ATP-dependent translocase ABCB1 (Homo sapiens, UniProt P08183). Put plainly: ABCB1 efflux pump inhibitor potency, dose response, Jurkat-DNR cells, JC-1, flow cytometry (AID 1689). It is filed as functional. Background: A flow cytometer gives signals particle by particle.
In test [17] the target is Broad substrate specificity ATP-binding cassette transporter ABCG2 (Homo sapiens, UniProt Q9UNQ0). As to the kind of experiment: ABCG2 efflux pump inhibitors, dose response, Ig-MXP3 cells, flow cytometry (AID 1690). It is filed as functional.
In test [18] the target is T4, Beta Lactamase (Pseudomonas aeruginosa, UniProt Q932Y6).
In test [19] the test system is Streptococcus sp. 'group A'. Put plainly: growth inhibition of control SK(-) GAS strain, dose response, counter-screen for streptokinase expression inhibitor project, luminescence, kanamycin, BacTiterGlo, confirmation (AID 1900). It is filed as functional, organism-based. On the technique in general: Counterscreens check selectivity or assay interference.
Test [20] addresses T5, Streptokinase A (Streptococcus pyogenes serotype M1, UniProt P10520).
T5 sequence (P10520 whole entry): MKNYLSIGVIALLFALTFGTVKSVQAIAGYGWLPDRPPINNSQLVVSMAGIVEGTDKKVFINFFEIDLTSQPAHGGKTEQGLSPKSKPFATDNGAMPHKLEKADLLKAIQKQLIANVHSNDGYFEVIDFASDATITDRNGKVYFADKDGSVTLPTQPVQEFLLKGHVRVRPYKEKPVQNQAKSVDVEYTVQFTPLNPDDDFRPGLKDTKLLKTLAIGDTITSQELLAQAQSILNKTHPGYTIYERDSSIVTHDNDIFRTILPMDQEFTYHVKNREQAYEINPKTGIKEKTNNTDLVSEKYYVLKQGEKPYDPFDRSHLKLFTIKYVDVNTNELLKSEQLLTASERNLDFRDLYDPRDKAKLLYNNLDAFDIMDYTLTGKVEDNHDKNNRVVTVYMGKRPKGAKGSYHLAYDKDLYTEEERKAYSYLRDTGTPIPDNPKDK
As to the kind of experiment: S. pyogenes streptokinase expression inhibitors, potency, dose response, plasminogen activation absorbance, OD405 (AID 1914).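 Note: secreted streptokinase activity via plasminogen activation per viability signal from cell pellet.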 The format is functional, Streptococcus pyogenes M1 GAS.

Test [21] has as its target Beta-lactamase (Pseudomonas aeruginosa, UniProt Q79MP6).
For test [22], the target named is Beta-lactamase (Salmonella choleraesuis (strain SC-B67), UniProt Q5J463).
Test [23] has as its system Streptococcus. Put plainly: Group A Streptococcus viability loss, dose response, counter-screen for streptokinase expression inhibitor project, luminescence, BacTiterGlo (AID 1915).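 Note: potency for reduction of bacterial viability or growth.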 It is filed as functional, organism-based.
Test [24] deals with Voltage-dependent T-type calcium channel subunit alpha-1H (Homo sapiens, UniProt O95180). The format is functional.
Test [25] addresses T6, ORF 73 (Human herpesvirus 8, UniProt O40947).
T6 sequence (O40947 whole entry): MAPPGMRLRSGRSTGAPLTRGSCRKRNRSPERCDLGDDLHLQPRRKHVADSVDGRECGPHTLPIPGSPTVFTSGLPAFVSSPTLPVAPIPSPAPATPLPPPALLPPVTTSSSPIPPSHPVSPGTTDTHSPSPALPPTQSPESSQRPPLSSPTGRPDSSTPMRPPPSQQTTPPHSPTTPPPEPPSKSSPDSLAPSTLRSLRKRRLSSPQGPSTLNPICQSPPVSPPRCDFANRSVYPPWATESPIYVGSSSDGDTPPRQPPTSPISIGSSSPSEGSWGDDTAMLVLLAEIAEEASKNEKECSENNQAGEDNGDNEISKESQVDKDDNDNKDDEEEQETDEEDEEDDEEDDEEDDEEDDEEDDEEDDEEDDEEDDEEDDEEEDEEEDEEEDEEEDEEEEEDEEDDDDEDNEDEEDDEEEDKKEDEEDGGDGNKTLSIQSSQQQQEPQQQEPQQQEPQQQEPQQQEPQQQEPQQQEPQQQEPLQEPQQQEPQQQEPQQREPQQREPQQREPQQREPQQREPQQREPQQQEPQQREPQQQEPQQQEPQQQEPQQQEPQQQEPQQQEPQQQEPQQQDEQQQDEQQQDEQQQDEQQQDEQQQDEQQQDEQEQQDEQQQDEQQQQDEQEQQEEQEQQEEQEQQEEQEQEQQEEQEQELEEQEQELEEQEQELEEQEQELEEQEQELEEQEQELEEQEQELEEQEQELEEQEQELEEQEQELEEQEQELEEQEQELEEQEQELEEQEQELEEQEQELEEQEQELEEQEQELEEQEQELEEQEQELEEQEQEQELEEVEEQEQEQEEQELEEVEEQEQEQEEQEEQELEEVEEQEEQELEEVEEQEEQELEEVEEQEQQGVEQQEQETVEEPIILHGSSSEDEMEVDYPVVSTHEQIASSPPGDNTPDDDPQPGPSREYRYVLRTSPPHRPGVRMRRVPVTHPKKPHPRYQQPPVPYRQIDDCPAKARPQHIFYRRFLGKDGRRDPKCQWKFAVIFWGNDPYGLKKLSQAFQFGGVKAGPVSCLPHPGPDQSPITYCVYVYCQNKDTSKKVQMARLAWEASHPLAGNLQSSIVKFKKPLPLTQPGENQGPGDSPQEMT
Put plainly: inhibitors of C-LANA binding to LBS DNA, dose response, biochemical, fluorescence polarization, cherry-picked samples (AID 504725).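 Note: fluorescence polarization of a labeled DNA duplex reporting LANA DNA binding; potency is for inhibitors that block LANA binding to the DNA.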 Details: species or system Human gammaherpesvirus 8.

Test [26] has as its system CHO. Put plainly: cytotoxicity in TLR9-MyD88 CHO cells, dose response, cytotoxicity control for TLR9-MyD88 binding inhibitor project, cell-based, luminescence (AID 588339).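 Note: CHO cells stably coexpressing TLR9 and MyD88 fusions from primary screen; compound exposure lasted 48 hours before viability readout.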 The format is functional, hamster. Conditions: Cricetulus griseus.
Test [27] concerns the target UDP-galactopyranose mutase (Mycobacterium tuberculosis, UniProt P9WIQ1). As to the kind of experiment: Inhibitors of Mycobacterium tuberculosis UDP-galactopyranose mutase (UGM) enzyme Measured in Biochemical System Using Plate Reader - 2105-02_Inhibitor_Dose_CherryPick_Activity. [Related pubchem assays (depositor defined):AID504439].
The target in test [28] is T4, Beta Lactamase. Put plainly: beta-lactamase reporter inhibitor potency, dose response, artefact control for TLR9-MyD88 binding inhibitor project, BLA reporter cells, FRET fluorescence (AID 588341).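 Note: cell based assay in CHO-K1 cells stably expressing beta-lactamase.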 It is filed as cell-based.

T4 sequence (Q932Y6 whole entry): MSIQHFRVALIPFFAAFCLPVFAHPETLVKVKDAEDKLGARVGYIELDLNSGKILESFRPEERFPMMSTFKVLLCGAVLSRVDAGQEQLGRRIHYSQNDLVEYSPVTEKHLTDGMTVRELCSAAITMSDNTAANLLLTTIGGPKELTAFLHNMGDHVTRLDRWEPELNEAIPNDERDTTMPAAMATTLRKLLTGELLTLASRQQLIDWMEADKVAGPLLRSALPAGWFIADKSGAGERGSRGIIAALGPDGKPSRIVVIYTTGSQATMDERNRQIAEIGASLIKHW
T3 sequence (P49327 whole entry, the tested form may be a part): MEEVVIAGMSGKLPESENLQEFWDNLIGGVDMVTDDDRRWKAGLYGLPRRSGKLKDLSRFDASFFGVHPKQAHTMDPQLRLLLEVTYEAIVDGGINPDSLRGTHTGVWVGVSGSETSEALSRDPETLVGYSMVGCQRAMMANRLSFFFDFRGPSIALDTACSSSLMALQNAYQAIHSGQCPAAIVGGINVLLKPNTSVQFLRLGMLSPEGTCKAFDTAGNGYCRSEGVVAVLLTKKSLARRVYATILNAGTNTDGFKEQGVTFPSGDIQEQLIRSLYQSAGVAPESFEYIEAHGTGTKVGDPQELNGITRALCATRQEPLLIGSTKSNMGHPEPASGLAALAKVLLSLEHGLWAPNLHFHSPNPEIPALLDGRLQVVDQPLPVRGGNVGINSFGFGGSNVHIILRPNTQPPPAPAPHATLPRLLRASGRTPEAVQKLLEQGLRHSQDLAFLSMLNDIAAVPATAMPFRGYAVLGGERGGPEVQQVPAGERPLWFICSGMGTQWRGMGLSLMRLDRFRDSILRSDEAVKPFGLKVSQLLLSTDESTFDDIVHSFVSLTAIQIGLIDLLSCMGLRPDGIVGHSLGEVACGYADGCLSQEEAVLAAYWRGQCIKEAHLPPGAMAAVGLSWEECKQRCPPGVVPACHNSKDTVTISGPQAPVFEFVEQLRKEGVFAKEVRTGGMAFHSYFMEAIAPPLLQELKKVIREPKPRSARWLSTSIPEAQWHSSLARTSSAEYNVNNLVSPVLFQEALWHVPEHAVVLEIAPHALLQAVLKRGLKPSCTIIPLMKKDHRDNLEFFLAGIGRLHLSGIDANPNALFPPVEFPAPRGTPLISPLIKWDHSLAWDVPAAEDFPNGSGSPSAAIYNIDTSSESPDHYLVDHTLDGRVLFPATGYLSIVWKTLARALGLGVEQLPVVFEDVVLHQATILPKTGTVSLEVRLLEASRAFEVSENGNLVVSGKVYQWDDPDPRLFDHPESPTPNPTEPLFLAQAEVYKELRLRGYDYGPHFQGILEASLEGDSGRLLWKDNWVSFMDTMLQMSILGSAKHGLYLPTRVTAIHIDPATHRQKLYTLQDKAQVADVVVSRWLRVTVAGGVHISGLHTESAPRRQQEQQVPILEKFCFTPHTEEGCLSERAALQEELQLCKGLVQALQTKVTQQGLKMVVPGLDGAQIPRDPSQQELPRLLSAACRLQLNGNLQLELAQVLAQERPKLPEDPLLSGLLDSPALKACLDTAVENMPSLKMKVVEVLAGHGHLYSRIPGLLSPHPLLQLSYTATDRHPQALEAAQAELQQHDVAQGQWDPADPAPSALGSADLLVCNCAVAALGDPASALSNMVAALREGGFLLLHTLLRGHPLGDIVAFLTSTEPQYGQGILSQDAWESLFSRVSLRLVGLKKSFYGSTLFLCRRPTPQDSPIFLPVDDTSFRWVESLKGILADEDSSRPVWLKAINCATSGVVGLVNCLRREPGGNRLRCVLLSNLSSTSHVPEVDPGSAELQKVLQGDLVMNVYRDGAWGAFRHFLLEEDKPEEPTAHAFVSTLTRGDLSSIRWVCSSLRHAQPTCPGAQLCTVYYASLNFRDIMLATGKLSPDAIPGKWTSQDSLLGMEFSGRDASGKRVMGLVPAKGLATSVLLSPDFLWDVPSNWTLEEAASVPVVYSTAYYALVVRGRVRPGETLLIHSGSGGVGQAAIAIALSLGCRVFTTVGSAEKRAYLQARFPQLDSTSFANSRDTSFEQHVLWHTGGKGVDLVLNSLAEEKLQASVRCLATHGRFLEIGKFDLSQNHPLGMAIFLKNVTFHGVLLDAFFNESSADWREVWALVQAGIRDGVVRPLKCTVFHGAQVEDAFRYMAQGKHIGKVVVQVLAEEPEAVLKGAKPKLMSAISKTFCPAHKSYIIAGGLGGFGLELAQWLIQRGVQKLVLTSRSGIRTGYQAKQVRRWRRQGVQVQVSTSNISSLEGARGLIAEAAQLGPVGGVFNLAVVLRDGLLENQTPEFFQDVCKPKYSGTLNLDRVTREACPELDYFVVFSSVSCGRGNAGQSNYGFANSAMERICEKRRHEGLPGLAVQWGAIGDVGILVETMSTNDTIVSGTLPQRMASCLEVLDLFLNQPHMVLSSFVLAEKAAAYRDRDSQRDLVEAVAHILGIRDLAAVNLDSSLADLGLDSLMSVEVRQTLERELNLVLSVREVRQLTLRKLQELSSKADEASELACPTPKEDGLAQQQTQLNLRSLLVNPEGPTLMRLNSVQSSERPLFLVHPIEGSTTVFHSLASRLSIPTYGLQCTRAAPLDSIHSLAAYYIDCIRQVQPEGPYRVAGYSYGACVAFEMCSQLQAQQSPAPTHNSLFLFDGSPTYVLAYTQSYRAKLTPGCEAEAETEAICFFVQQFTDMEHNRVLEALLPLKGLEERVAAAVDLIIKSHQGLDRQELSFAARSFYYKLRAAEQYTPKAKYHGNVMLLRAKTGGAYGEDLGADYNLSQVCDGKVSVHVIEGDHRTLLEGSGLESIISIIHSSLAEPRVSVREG
T2 sequence (Q38C91 whole entry): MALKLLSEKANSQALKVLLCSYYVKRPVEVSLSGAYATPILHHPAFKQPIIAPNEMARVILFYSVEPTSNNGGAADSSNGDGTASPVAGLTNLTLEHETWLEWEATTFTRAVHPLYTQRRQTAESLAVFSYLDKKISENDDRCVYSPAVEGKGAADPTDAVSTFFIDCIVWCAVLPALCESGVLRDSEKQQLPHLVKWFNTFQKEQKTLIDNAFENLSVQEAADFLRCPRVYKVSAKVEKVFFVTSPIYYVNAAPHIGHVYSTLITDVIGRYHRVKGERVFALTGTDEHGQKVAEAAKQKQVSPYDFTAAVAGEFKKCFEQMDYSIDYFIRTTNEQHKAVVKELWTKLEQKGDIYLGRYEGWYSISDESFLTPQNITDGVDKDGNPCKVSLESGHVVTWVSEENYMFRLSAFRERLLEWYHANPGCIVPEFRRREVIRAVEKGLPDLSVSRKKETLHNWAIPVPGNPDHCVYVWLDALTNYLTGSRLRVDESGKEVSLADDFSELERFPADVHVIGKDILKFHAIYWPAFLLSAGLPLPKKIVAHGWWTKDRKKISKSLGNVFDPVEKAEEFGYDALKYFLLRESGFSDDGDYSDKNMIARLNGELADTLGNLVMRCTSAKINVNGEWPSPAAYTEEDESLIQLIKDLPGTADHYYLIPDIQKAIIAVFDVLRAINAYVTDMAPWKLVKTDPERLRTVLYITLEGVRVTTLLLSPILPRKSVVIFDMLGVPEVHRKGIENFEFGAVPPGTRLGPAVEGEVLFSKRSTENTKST
Chain of Dual specificity protein phosphatase 3 (P51452 whole entry): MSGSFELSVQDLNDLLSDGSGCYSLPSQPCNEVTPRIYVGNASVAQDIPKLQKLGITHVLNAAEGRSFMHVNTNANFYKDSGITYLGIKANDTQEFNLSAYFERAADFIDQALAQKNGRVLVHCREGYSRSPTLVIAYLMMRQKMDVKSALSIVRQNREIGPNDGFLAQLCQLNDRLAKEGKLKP
Chain of ATP-dependent translocase ABCB1 (P08183 whole entry): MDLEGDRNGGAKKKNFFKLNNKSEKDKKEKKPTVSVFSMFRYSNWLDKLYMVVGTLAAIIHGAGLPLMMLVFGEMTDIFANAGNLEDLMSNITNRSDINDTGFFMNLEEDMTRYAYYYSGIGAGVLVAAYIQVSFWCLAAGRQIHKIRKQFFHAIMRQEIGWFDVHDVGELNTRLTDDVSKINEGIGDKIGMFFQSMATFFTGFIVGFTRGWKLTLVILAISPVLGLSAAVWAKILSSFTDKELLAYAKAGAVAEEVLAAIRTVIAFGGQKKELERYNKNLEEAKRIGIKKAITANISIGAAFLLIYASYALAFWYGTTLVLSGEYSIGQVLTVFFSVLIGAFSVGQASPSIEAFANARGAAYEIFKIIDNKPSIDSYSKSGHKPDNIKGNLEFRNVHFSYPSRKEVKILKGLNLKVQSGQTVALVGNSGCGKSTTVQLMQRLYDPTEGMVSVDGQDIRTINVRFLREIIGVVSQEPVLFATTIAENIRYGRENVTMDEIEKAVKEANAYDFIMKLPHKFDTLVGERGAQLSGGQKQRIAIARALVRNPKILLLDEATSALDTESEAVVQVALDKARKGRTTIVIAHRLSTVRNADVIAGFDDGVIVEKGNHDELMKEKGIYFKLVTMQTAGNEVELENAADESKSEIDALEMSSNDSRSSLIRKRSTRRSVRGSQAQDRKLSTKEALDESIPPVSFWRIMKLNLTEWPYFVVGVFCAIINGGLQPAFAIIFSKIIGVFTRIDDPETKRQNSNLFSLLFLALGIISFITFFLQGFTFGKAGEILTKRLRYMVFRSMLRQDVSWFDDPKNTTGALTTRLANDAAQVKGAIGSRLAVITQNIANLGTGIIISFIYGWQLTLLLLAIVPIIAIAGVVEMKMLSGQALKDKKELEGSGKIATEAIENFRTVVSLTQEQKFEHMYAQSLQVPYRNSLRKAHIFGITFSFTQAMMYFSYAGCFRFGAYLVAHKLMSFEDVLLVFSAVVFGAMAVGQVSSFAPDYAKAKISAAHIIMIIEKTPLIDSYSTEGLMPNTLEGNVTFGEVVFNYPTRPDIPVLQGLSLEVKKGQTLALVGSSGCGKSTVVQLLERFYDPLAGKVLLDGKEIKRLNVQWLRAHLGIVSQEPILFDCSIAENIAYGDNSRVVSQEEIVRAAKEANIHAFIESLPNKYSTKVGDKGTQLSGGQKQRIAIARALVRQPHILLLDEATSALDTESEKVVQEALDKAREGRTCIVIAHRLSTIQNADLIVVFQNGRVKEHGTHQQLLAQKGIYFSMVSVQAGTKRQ

Turning to `COc1cc(Cl)cc(/C=N\NC(=O)c2ccc3c(c2)OCO3)c1O`, the IC50 in test [1] was 4.16 µM (active); in test [2], 21.5 µM (active); in test [3], 9.73 µM (active); in [4], > 100 µM (inactive); in test [5], 5.02 µM (active); in test [6], 65.6 µM (active). Besides, the IC50 in [7] was > 100 µM (inactive). Moreover, the AC50 in [8] was 5.99 µM (active); in test [9] it was 16.6 µM (active).

Turning to `Cc1ccc(NC(=O)CN(C)C(=O)c2ccc(Cl)c([N+](=O)[O-])c2)cc1`, the IC50 was 17.9 µM (inactive) in test [10]; 56.7 µM (inactive) in test [11]; 8.63 µM (active) in [12]; 7.6 µM (active) in test [13]; 6.26 µM (active) in test [14].

Take `C[C@@H]1CN([C@@H](C)CO)C(=O)c2cccc(NC(=O)Nc3ccc(C(F)(F)F)cc3)c2O[C@@H]1CN(C)Cc1ccc(Cl)c(Cl)c1`: in test [15], the AC50 is 14.2 µM (active).

For `CCOc1ccc(NC(=O)c2cccc3c2C(=O)N(CCOC)C3)cc1`, the values for the EC50 in test [16] and in test [17] were 8.31 µM (inactive) and 1.6 µM (active), respectively.

As to `CN1C(=O)/C(=N\CCc2ccccc2)c2c3ccccc3c(O)c3cccc1c23`, the IC50 in test [18] was 9.24 µM (active); in test [21], 11.5 µM (inactive); in test [22], 2.19 µM (active); in test [26] it was > 49.8 µM (inactive); in [28], 5.98 µM (active). Besides, the EC50 in [19] was 11.3 µM (active); in test [20] it was > 150 µM (not active); in test [23] it was > 150 µM (not active); in test [24], 1.6 µM (active). In addition, the AC50 in [25] is 0.902 µM (active); in [27], 0.73 µM (active).
